Data reported in patent publication US20170208799A1, “SYNERGISTIC ANTIMICROBIAL COMPOSITION” (Dow Global Technologies LLC, priority 2014, published 2017).

Legend:
Assay type in all cases: cell-based
[1] = test system: Field isolate, Acid Producing bacteria (APB); experiment: Synergy test in 96 well microtiter plate against anaerobic acid producing bacteria; conditions: end point, Environmental isolate APB, 24 hours, 32° C.; for Aqucar TN-50 (ppm THNM) - QA: THNM alone
Description: The synergism of the biocides combination of the present invention was determined using the method described by Kull, F. C, et al. in Applied Microbiology 9:538-541 (1961). […] If end point could not be established, the highest concentration of biocide tested will be used as the end point for the calculation and the SI will be recorded in “less than or <” values. […] The type of microorganisms used for the test inoculums, the matrix to support optimum microbial growth during the test period and the medium used to enumerate the microorganisms after specified contact time are summarized in Table 2. Mineral salts medium (MSM No Nutrients). The medium contains (in mg/l) the following components: FeCl3.6H2O (1); CaCl2.2H2O (10); MgSO4.7H2O (22.5); (NH4)2SO4 (40); KH2PO4 (10); and K2HPO4 (25.5). After all components are added to deionized water, the pH of the medium is adjusted to 7.5 before use. [table] Synergy tests of THNM alone and in combination with a second biocide against the different test microorganisms were conducted using standard 96 well microtiter plate assays. The test was carried out by adding 500 uL of matrix, 50 μl of tested organism and 50 μl of each biocide into wells of the microtiter plate. The final biocides and test inoculum concentrations in each well were established based on this total volume. For each experiment, the final concentration of the test organisms was in the range of 10^6 to 10^7 cfu/ml. The highest concentration of THNM and second biocide used in this synergy study was 250 and 100 or 50 ppm (depending on the efficacy of the active), respectively. Eight 2-fold dilutions of each biocide were prepared using an automated liquid handling system. The first biocide was added into the well plate horizontally and the second biocide is added after rotating the plate 90 degrees. Columns nine and ten were reserved for each individual biocide to be tested at each concentration level to achieve at least 4-log bacterial kill or 2-log bacterial count (defined as end point) for synergy index calculation. In case the end point was not achieved, the highest biocide concentration tested was used for synergy index calculation. Wells in Column 11 were used as positive controls; they contained only the media and the test organism. The plates were incubated at 25° C. for aerobic bacteria and 32° C. for anaerobic bacteria. Enumeration was performed 24 hours contact time by employing the MPN method. Numbers of surviving bacteria were determined by removing 20 uL of the cell suspension from each well and adding it into 180 ul of enumeration media (i.e., resazurin TSB plates) then serially dilute in a 96-well block. Plates were incubated for 48 hours or until growth is observed in the control wells.

[2] = test system: Desulfuvibrio longus (D. longus); experiment: Synergy test in 96 well microtiter plate against anaerobic sulfate reducing bacteria; conditions: end point, 32° C.; for Aqucar TN-50 (ppm THNM) - QA: THNM alone
Description: The synergism of the biocides combination of the present invention was determined using the method described by Kull, F. C, et al. in Applied Microbiology 9:538-541 (1961). […] If end point could not be established, the highest concentration of biocide tested will be used as the end point for the calculation and the SI will be recorded in “less than or <” values. […] The type of microorganisms used for the test inoculums, the matrix to support optimum microbial growth during the test period and the medium used to enumerate the microorganisms after specified contact time are summarized in Table 2. SNF (per liter of deionized water): NaCl, 3.12 gm; NaHCO3 0.131 gm; Na2SO4 0.17 gm; 1% KCl Solution (in water) 4.77 g; 1% CaCl2 Solution (in water) 7.2 gm; 1% MgSO4 Solution (in water) 5.45 gm; 1% Na2CO3 Solution (in water) 4.39 gm. Adjust the pH to 7 before use. Modified Baar's medium (MB): MgSO4, 2 g/l; sodium citrate, 5 g/l; CaSO4, 1 g/l; NH4Cl, g/l; K2HPO4, 0.5 g/l; sodium lactate, 3.5 g/l; yeast extract, 1 g/l; Sodium thioglycolate 0. g/l. Fe(NH4)2(SO4)2 1 g/l, deionized water. Adjust the pH to 7.5 before sodium thioglycolate is added. [table] Synergy tests of THNM alone and in combination with a second biocide against the different test microorganisms were conducted using standard 96 well microtiter plate assays. The test was carried out by adding 500 uL of matrix, 50 μl of tested organism and 50 μl of each biocide into wells of the microtiter plate. The final biocides and test inoculum concentrations in each well were established based on this total volume. For each experiment, the final concentration of the test organisms was in the range of 10^6 to 10^7 cfu/ml. The highest concentration of THNM and second biocide used in this synergy study was 250 and 100 or 50 ppm (depending on the efficacy of the active), respectively. Eight 2-fold dilutions of each biocide were prepared using an automated liquid handling system. The first biocide was added into the well plate horizontally and the second biocide is added after rotating the plate 90 degrees. Columns nine and ten were reserved for each individual biocide to be tested at each concentration level to achieve at least 4-log bacterial kill or 2-log bacterial count (defined as end point) for synergy index calculation. In case the end point was not achieved, the highest biocide concentration tested was used for synergy index calculation. Wells in Column 11 were used as positive controls; they contained only the media and the test organism. The plates were incubated at 25° C. for aerobic bacteria and 32° C. for anaerobic bacteria. Enumeration was performed 24 hours contact time by employing the MPN method. Numbers of surviving bacteria were determined by removing 20 uL of the cell suspension from each well and adding it into 180 ul of enumeration media (i.e., resazurin TSB plates) then serially dilute in a 96-well block. Plates were incubated for 48 hours or until growth is observed in the control wells.

[3] = test system: Aerobic bacteria: Klebsiella pneumoniae (ATCC 8308), Bacillus subtilis (ATCC 8473), Pseudomonas aeruginosa (ATCC 15442), Staphylococcus aureus (ATCC 6538); experiment: Synergy test in 96 well microtiter plate against aerobic bacteria; conditions: end point, 24 hours; for Aqucar TN-50 (ppm THNM) - QA: THNM alone
Description: The synergism of the biocides combination of the present invention was determined using the method described by Kull, F. C, et al. in Applied Microbiology 9:538-541 (1961). […] If end point could not be established, the highest concentration of biocide tested will be used as the end point for the calculation and the SI will be recorded in “less than or <” values. […] The type of microorganisms used for the test inoculums, the matrix to support optimum microbial growth during the test period and the medium used to enumerate the microorganisms after specified contact time are summarized in Table 2. Mineral salts medium (MSM). The medium contains (in mg/l) the following components: FeCl3.6H2O (1); CaCl2.2H2O (10); MgSO4.7H2O (22.5); (NH4)2SO4 (40); KH2PO4 (10); K2HPO4 (25.5); Yeast Extract (10); and glucose (100). After all components are added to deionized water, the pH of the medium is adjusted to 7.5 before use. [table] Synergy tests of THNM alone and in combination with a second biocide against the different test microorganisms were conducted using standard 96 well microtiter plate assays. The test was carried out by adding 500 uL of matrix, 50 μl of tested organism and 50 μl of each biocide into wells of the microtiter plate. The final biocides and test inoculum concentrations in each well were established based on this total volume. For each experiment, the final concentration of the test organisms was in the range of 10^6 to 10^7 cfu/ml. The highest concentration of THNM and second biocide used in this synergy study was 250 and 100 or 50 ppm (depending on the efficacy of the active), respectively. Eight 2-fold dilutions of each biocide were prepared using an automated liquid handling system. The first biocide was added into the well plate horizontally and the second biocide is added after rotating the plate 90 degrees. Columns nine and ten were reserved for each individual biocide to be tested at each concentration level to achieve at least 4-log bacterial kill or 2-log bacterial count (defined as end point) for synergy index calculation. In case the end point was not achieved, the highest biocide concentration tested was used for synergy index calculation. Wells in Column 11 were used as positive controls; they contained only the media and the test organism. The plates were incubated at 25° C. for aerobic bacteria and 32° C. for anaerobic bacteria. Enumeration was performed 24 hours contact time by employing the MPN method. Numbers of surviving bacteria were determined by removing 20 uL of the cell suspension from each well and adding it into 180 ul of enumeration media (i.e., resazurin TSB plates) then serially dilute in a 96-well block. Plates were incubated for 48 hours or until growth is observed in the control wells.

## Benzalkonium chloride (benzyl-C8-18-alkyldimethyl, chlorides) [BKC]
[1]; BKC alone
  BKC (ppm ADBAC) - QB: 12.50 ppm
[2]; BKC alone, 24 hours
  BKC (ppm ADBAC) - QB: 3.13 ppm
[3]; BKC alone, aerobic bacteria, 25° C.
  Benzalkonium Chloride (ppm BKC) - QB: >50 ppm

## O=[N+]([O-])C(CO)(CO)CO [THNM, Tris(hydroxymethyl)nitromethane]
[1]; Table 11
  Aqucar TN-50 (ppm THNM) - QA: >250 ppm
[1]; Table 12
  Aqucar TN-50 (ppm THNM) - QA: >250 ppm
[1]; Table 13
  Aqucar TN-50 (ppm THNM) - QA: >250 ppm
[1]; Table 14
  Aqucar TN-50 (ppm THNM) - QA: >250 ppm
[2]; Table 7, 24 hours
  Aqucar TN-50 (ppm THNM) - QA: 250.00 ppm
[2]; Table 8, 24 hours
  Aqucar TN-50 (ppm THNM) - QA: 250.00 ppm
[2]; Table 9, 24 hours
  Aqucar TN-50 (ppm THNM) - QA: 250.00 ppm
[2]; Table 10, 24 hours
  Aqucar TN-50 (ppm THNM) - QA: 250.00 ppm
[3]; Table 3, aerobic bacteria, 25° C.
  Aqucar TN-50 (ppm THNM) - QA: >250 ppm
[3]; Table 4, aerobic bacteria, 25° C.
  Aqucar TN-50 (ppm THNM) - QA: >250 ppm
[3]; Table 5, aerobic bacteria, 25° C.
  Aqucar TN-50 (ppm THNM) - QA: >250 ppm
[3]; Table 6
  Aqucar TN-50 (ppm THNM) - QA: >250 ppm

## N-alkyl (50% C14, 40% C12, 10% C16) dimethylbenzyl ammonium Chloride [ADBAC]
[1]; ADBAC alone
  Maquat MC1412 (ppm ADBAC) - QB: 12.5 ppm
[2]; ADBAC alone, 24 hours
  Maquat MC1412 (ppm ADBAC) - QB: 6.25 ppm
[3]; ADBAC alone, aerobic bacteria, 25° C.
  Maquat MC1412 (ppm ADBAC) - QB: >50 ppm
